These results are taken from paper PMC11302666, “The two alternative NADH:quinone oxidoreductases from Staphylococcus aureus: two players with different molecular and cellular roles” (Microbiology Spectrum, 2024).

In one data set the target is T1, NDH-2A (Staphylococcus aureus, UniProt Q2FZV7).
T1 construct: gene SAOUHSC_00878
Briefly: NADH:DMN oxidoreductase specific activity of purified enzyme, pH […]. It is filed as biochemical.

Data set [1] concerns the target T2, NDH-2B (Staphylococcus aureus, UniProt Q2FZW0).
T2 construct: gene SAOUHSC_00875
T2 sequence (Q2FZW0 1-354): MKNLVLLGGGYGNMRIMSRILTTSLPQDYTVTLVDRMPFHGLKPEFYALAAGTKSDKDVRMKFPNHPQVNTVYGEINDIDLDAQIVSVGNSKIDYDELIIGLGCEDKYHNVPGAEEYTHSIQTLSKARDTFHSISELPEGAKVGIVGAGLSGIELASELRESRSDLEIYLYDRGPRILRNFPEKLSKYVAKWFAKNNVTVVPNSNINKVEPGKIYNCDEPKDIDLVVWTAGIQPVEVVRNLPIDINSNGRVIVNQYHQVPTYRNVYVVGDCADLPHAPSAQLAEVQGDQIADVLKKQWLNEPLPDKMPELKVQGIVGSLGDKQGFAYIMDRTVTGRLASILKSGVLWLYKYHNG
Briefly: NADH:DMN oxidoreductase specific activity of purified enzyme. It is filed as biochemical.

Data set [2] deals with T2, NDH-2B. Put plainly: steady-state NADPH:DMN oxidoreductase inhibition (Ki app); also tryptophan fluorescence quenching titration. It is filed as biochemical.
Data set [3] addresses T2, NDH-2B. Briefly: tryptophan fluorescence quenching titration. It counts as binding.
In data set [4] the target is T2, NDH-2B. Briefly: tryptophan fluorescence quenching titration and STD-NMR; KM […] in steady-state kinetics. It is filed as binding.
Data set [5] concerns the target T2, NDH-2B. Briefly: co-purified flavin identified by HPLC and UV-visible spectrum. It counts as binding.
For data set [6], the target named is T2, NDH-2B. Briefly: tryptophan fluorescence quenching titration and STD-NMR. It is filed as binding.
Substrate in the data set “purified protein”: NC(=O)C1=CN([C@@H]2O[C@H](COP(=O)(O)OP(=O)(O)OC[C@H]3O[C@@H](n4cnc5c(N)ncnc54)[C@H](OP(=O)(O)O)[C@@H]3O)[C@@H](O)[C@H]2O)C=CC1
Put plainly: purified protein. It counts as biochemical, Staphylococcus aureus. To be noted: FAD binding site different from that of the quinone; pH 7.0.

T1 sequence (Q2FZV7 whole entry): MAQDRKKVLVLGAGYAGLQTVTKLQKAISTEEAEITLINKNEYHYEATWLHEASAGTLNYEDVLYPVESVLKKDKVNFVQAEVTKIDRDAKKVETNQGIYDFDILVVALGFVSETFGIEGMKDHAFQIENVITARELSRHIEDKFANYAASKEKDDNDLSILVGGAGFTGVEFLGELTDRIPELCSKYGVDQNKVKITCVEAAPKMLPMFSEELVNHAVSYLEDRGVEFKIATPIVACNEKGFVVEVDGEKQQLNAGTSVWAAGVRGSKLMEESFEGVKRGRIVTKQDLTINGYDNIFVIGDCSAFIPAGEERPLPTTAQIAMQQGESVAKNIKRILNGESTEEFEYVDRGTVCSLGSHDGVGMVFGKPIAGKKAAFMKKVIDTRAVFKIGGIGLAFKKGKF

`NC(=O)C1=CN([C@@H]2O[C@H](COP(=O)(O)OP(=O)(O)OC[C@H]3O[C@@H](n4cnc5c(N)ncnc54)[C@H](O)[C@@H]3O)[C@@H](O)[C@H]2O)C=CC1` [NADH] had an NDH-2A at NDH-2A of 122.10 ± 18.30 µmol/min/mg. Also, the NDH-2B on NDH-2B [1] amounted to 34.03 ± 0.86 µmol/min/mg.

For `CCCCCCCc1cc(O)c2ccccc2[n+]1[O-]` [HQNO, 2-n-heptyl-4-hydroxyquinoline-N-oxide], the Ki at NDH-2B [2] is 6.4 ± 1.25 µM.

`NC(=O)c1ccc[n+]([C@@H]2O[C@H](COP(=O)([O-])OP(=O)(O)OC[C@H]3O[C@@H](n4cnc5c(N)ncnc54)[C@H](O)[C@@H]3O)[C@@H](O)[C@H]2O)c1` [NAD^+] came in with a Kd on NDH-2B [3] of 170 ± 7.6 µM.

Take `CC1=C(C)C(=O)c2ccccc2C1=O` [DMN, 2,3-dimethyl-1,4-naphthoquinone]: the Kd on NDH-2B [4] came out at 160 ± 35 µM.

Regarding `Cc1cc2nc3c(=O)[nH]c(=O)nc-3n(C[C@H](O)[C@H](O)[C@H](O)COP(=O)(O)OP(=O)(O)OC[C@H]3O[C@@H](n4cnc5c(N)ncnc54)[C@H](O)[C@@H]3O)c2cc1C` [FAD, flavin adenine dinucleotide], the “co-purified flavin identified by HPLC and UV-visible spectrum” value on NDH-2B [5] is given as “Subsequent HPLC analysis confirmed the flavin as flavin adenine dinucleotide (FAD)”.

The molecule `NC(=O)c1ccc[n+]([C@@H]2O[C@H](COP(=O)(O)OP(=O)(O)OC[C@H]3O[C@@H](n4cnc5c(N)ncnc54)[C@H](OP(=O)(O)O)[C@@H]3O)[C@@H](O)[C@H]2O)c1` [NADP^+] yielded a Kd on NDH-2B [6] of 182 ± 29 µM.

B1: NDH-2B (Staphylococcus aureus subsp. aureus NCTC 8325) (protein)
chain: T2 sequence (Q2FZW0 1-354)
As for B1, in the data set “purified protein”, the Km is reported as 80.4 ± 7.7 µM.

A word on the Kd: it is the equilibrium constant for the complex coming apart. A high value points to a looser complex. For orientation: Km means the substrate concentration at which the rate is half of its maximum.
